Source: patent publication US12448388B2, “PRMT5 inhibitors and uses thereof” (Gilead Sciences, Inc., priority 2023, dated 2025)

Key:
[1] = tested on: HCT116 MTAP-deleted cell lines; assay: Cell viability assay (CellTiter-Glo, 7 days), HCT116 MTAP-deleted; format: cell-based; conditions: Homo sapiens, HCT-116; cell viability assay, HCT116 MTAP-deleted; class symbols; read-out: CC50
Summary of the method: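 Each PRMT5 inhibitor was tested as a dose response alongside tool compounds on the same plate. Incubation ran 7 days at 37 °C under 5% CO2, after which CellTiter-Glo luminescence was recorded and CC50 calculated.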

[2] = tested on: Symmetric Di-methyl Arginine (SDMA) signal (PRMT5 inhibition) in HCT116 MTAP-deleted cells; assay: Symmetric di-methyl arginine image-based high content screen assay (SDMA assay), HCT116 MTAP-deleted; format: cell-based; conditions: for EC50 selectivity: HCT116 WT vs HCT116 MTAP-deleted; for EC50: Homo sapiens, HCT-116, HCT116 MTAP-deleted, class symbols
Summary of the method: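 Read-out is imaging of per-cell mean SDMA immunofluorescence (Alexa 488), with cells segmented by DAPI. Cells, MTAP-deleted or wild-type HCT116, were exposed to compound for 3 days at 37 °C before fixation. EC50 derived by 4-parameter non-linear logistic regression.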

Row | Structure (SMILES) | EC50 selectivity [2] | EC50 [2] [nM] | CC50 [1] [nM]
1 | C[C@@H]1C[C@@H]2Oc3cc(OC(F)(F)F)ccc3[C@@H]2N(C(=O)c2ccc3nc(N)c4cncn4c3c2)C1 [Ff-616, (4-aminoimidazo[1,5-a]quinoxalin-8-yl)((3R,4aS,9bS)-3-methyl-7-(trifluoromethoxy)-3,4,4a,9b-tetrahydrobenzofuro[3,2-b]pyridin-1(2H)-yl)methanone] | 162 | ≤ 1 | < 100
2 | Cc1ncn2c1c(N)nc1cnc(C(=O)N3CCC4(CC4)[C@@H]4Oc5cc(OC(F)(F)F)ccc5[C@@H]43)cc12 [Ff-617, (4-amino-3-methylimidazo[1,5-a]pyrido[3,4-e]pyrazin-8-yl)((4aS,9bS)-7-(trifluoromethoxy)-2,3,4a,9b-tetrahydro-1H-spiro[benzofuro[3,2-b]pyridine-4,1′-cyclopropan]-1-yl)methanone] | 274 | 1 to 5 | < 100
3 | Nc1nc2cnc(C(=O)N3CCC4(CC4)[C@@H]4Oc5cc(OC(F)(F)F)ccc5[C@@H]43)cc2n2cncc12 [Ff-618, (4-aminoimidazo[1,5-a]pyrido[3,4-e]pyrazin-8-yl)((4aS,9bS)-7-(trifluoromethoxy)-2,3,4a,9b-tetrahydro-1H-spiro[benzofuro[3,2-b]pyridine-4,1′-cyclopropan]-1-yl)methanone] | 294 | 1 to 5 | < 100
4 | Cc1ncn2c1c(N)nc1cnc(C(=O)N3C[C@H](C)C[C@@H]4Oc5cc(OC(F)(F)F)ccc5[C@@H]43)cc12 [Ff-619, (4-amino-3-methylimidazo[1,5-a]pyrido[3,4-e]pyrazin-8-yl)((3R,4aS,9bS)-3-methyl-7-(trifluoromethoxy)-3,4,4a,9b-tetrahydrobenzofuro[3,2-b]pyridin-1(2H)-yl)methanone] | 58 | 1 to 5 | < 100
5 | Cc1ncn2c1c(N)nc1cnc(C(=O)N3C[C@H](C)C[C@@H]4Oc5cc(C(F)(F)F)ccc5[C@@H]43)cc12 [Ff-624, (4-amino-3-methylimidazo[1,5-a]pyrido[3,4-e]pyrazin-8-yl)((3R,4aS,9bS)-3-methyl-7-(trifluoromethyl)-3,4,4a,9b-tetrahydrobenzofuro[3,2-b]pyridin-1(2H)-yl)methanone] | 27 | > 5 | 100 to 1000
6 | Nc1nc2cc(F)c(C(=O)N3CC[C@H]4C[C@@H]3c3ccc(C(F)(F)F)c(F)c3O4)cc2n2cncc12 [Ff-634, (4-amino-7-fluoroimidazo[1,5-a]quinoxalin-8-yl)((2S,6R)-10-fluoro-9-(trifluoromethyl)-3,4-dihydro-2H-2,6-methanobenzo[b][1,5]oxazocin-5(6H)-yl)methanone] | 171 | ≤ 1 | < 100
7 | [2H]C1([2H])C[C@H]2C[C@H](c3ccc(C(F)(F)F)cc3O2)N1C(=O)c1cc2c(cc1F)nc(N)c1cncn12 [Ff-637, (4-amino-7-fluoroimidazo[1,5-a]quinoxalin-8-yl)((2S,6R)-9-(trifluoromethyl)-3,4-dihydro-2H-2,6-methanobenzo[b][1,5]oxazocin-5(6H)-yl-4,4-d2)methanone] | 182 | ≤ 1 | < 100
8 | Cc1ncc2c(N)nc3ccc(C(=O)N4CCC[C@@H]5Oc6cc(OC(F)(F)F)ccc6[C@@H]54)cc3n12 [Ff-640, (4-amino-1-methylimidazo[1,5-a]quinoxalin-8-yl)((4aS,9bS)-7-(trifluoromethoxy)-3,4,4a,9b-tetrahydrobenzofuro[3,2-b]pyridin-1(2H)-yl)methanone] | 415 | 1 to 5 | < 100
9 | CN(C(=O)c1ccc2nc(N)c3cncn3c2c1)[C@@H]1COc2cc(C34CC(C(F)F)(C3)C4)ccc21 [Ff-641, (S)-4-amino-N-(6-(3-(difluoromethyl)bicyclo[1.1.1]pentan-1-yl)-2,3-dihydrobenzofuran-3-yl)-N-methylimidazo[1,5-a]quinoxaline-8-carboxamide] | 389 | ≤ 1 | < 100
10 | [2H]C1([2H])CC[C@@H]2Oc3cc(C(F)(F)F)ccc3[C@@H]2N1C(=O)c1ccc2nc(N)c3cncn3c2c1 [Ff-643, (4-aminoimidazo[1,5-a]quinoxalin-8-yl)((4aS,9bS)-7-(trifluoromethyl)-3,4,4a,9b-tetrahydrobenzofuro[3,2-b]pyridin-1(2H)-yl-2,2-d2)methanone] | 155 | ≤ 1 | < 100
11 | [2H]C1([2H])CC[C@@H]2Oc3cc(C(F)(F)F)ccc3[C@@H]2N1C(=O)c1cc2c(cn1)nc(N)c1c(C)ncn12 [Ff-644, (4-amino-3-methylimidazo[1,5-a]pyrido[3,4-e]pyrazin-8-yl)((4aS,9bS)-7-(trifluoromethyl)-3,4,4a,9b-tetrahydrobenzofuro[3,2-b]pyridin-1(2H)-yl-2,2-d2)methanone] | 92 | ≤ 1 | < 100
12 | Cc1ncn2c1c(N)nc1cnc(C(=O)N3C[C@@H](F)C[C@@H]4Oc5cc(C(F)(F)F)ccc5[C@@H]43)cc12 [Ff-658, (4-amino-3-methylimidazo[1,5-a]pyrido[3,4-e]pyrazin-8-yl)((3S,4aS,9bS)-3-fluoro-7-(trifluoromethyl)-3,4,4a,9b-tetrahydrobenzofuro[3,2-b]pyridin-1(2H)-yl)methanone] | 124 | 1 to 5 | < 100

Now from value to compound, other results behind:

Row | EC50 selectivity [2] | EC50 [2] [nM] | Structure (SMILES) | CC50 [1] [nM]
13 | 122 | ≤ 1 | Cc1ncc2c(N)nc3ccc(C(=O)N4C[C@@H](F)C[C@@H]5Oc6cc(C(F)(F)F)ccc6[C@@H]54)cc3n12 [Ff-660, (4-amino-1-methylimidazo[1,5-a]quinoxalin-8-yl)((3S,4aS,9bS)-3-fluoro-7-(trifluoromethyl)-3,4,4a,9b-tetrahydrobenzofuro[3,2-b]pyridin-1(2H)-yl)methanone] | < 100
14 | 147 | ≤ 1 | Nc1nc2cc(F)c(C(=O)N3CCC[C@@H]4Oc5cc(-c6cnn(C(F)F)c6)ccc5[C@@H]43)cc2n2cncc12 [Ff-661, (4-amino-7-fluoroimidazo[1,5-a]quinoxalin-8-yl)((4aS,9bS)-7-(1-(difluoromethyl)-1H-pyrazol-4-yl)-3,4,4a,9b-tetrahydrobenzofuro[3,2-b]pyridin-1(2H)-yl)methanone] | < 100
15 | 70 | 1 to 5 | [2H]C([2H])([2H])c1ncn2c1c(N)nc1cnc(C(=O)N3CCC[C@@H]4Oc5cc(C(F)(F)F)ccc5[C@@H]43)cc12 [Ff-662, (4-amino-3-(methyl-d3)imidazo[1,5-a]pyrido[3,4-e]pyrazin-8-yl)((4aS,9bS)-7-(trifluoromethyl)-3,4,4a,9b-tetrahydrobenzofuro[3,2-b]pyridin-1(2H)-yl)methanone] | < 100
16 | 23 | ≤ 1 | Nc1nc2cc(F)c(C(=O)N3CCC[C@@H]4Oc5cc(S(F)(F)(F)(F)F)ccc5[C@@H]43)cc2n2cncc12 [Ff-663, (4-amino-7-fluoroimidazo[1,5-a]quinoxalin-8-yl)((4aS,9bS)-7-(pentafluoro-16-sulfaneyl)-3,4,4a,9b-tetrahydrobenzofuro[3,2-b]pyridin-1(2H)-yl)methanone] | < 100
17 | 79 | ≤ 1 | Nc1nc2ccc(C(=O)N3CCC[C@@H]4Oc5cc(S(F)(F)(F)(F)F)ccc5[C@@H]43)cc2n2cncc12 [Ff-664, (4-aminoimidazo[1,5-a]quinoxalin-8-yl)((4aS,9bS)-7-(pentafluoro-16-sulfaneyl)-3,4,4a,9b-tetrahydrobenzofuro[3,2-b]pyridin-1(2H)-yl)methanone] | < 100
18 | 39 | ≤ 1 | Cc1ncn2c1c(N)nc1cnc(C(=O)N3CCC[C@@H]4Oc5cc(S(F)(F)(F)(F)F)ccc5[C@@H]43)cc12 [Ff-665, (4-amino-3-methylimidazo[1,5-a]pyrido[3,4-e]pyrazin-8-yl)((4aS,9bS)-7-(pentafluoro-16-sulfaneyl)-3,4,4a,9b-tetrahydrobenzofuro[3,2-b]pyridin-1(2H)-yl)methanone] | < 100
19 | 115 | ≤ 1 | Nc1nc2ccc(C(=O)N3C[C@@H](F)C[C@@H]4Oc5cc(OC(F)(F)F)ccc5[C@@H]43)cc2n2cncc12 [Ff-667, (4-aminoimidazo[1,5-a]quinoxalin-8-yl)((3S,4aS,9bS)-3-fluoro-7-(trifluoromethoxy)-3,4,4a,9b-tetrahydrobenzofuro[3,2-b]pyridin-1(2H)-yl)methanone] | < 100
20 | 485 | 1 to 5 | Nc1nc2cc(F)c(C(=O)N3CCC4(CCCc5ccccc54)C3)cc2n2cncc12 (stereo not drawn) [Ff-669, (4-amino-7-fluoroimidazo[1,5-a]quinoxalin-8-yl)(3,4-dihydro-2H-spiro[naphthalene-1,3′-pyrrolidin]-1′-yl)methanone] | 100 to 1000
21 | 197 | 1 to 5 | CN(C(=O)c1cc2c(cc1F)nc(N)c1cncn12)[C@@H]1COc2cc(C(F)(F)F)ncc21 [Ff-673, (S)-4-amino-7-fluoro-N-methyl-N-(6-(trifluoromethyl)-2,3-dihydrofuro[3,2-c]pyridin-3-yl)imidazo[1,5-a]quinoxaline-8-carboxamide] | < 100
